Experimental data published in patent US20240018120A1, “MAGL INHIBITORS” (H. LUNDBECK A/S, priority 2020, published 2024).

Biological target: T1, MAGL (Homo sapiens, UniProt Q99685)
T1 sequence (Q99685 1-303): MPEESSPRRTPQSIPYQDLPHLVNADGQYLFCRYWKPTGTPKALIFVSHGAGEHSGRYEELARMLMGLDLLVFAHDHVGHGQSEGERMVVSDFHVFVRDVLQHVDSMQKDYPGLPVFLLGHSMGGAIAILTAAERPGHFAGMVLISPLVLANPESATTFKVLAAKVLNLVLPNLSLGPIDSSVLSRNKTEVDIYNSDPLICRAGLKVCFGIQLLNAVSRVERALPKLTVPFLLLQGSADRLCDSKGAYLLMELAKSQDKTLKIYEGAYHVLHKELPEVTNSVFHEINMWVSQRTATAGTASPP
Test: In vitro competitive activity-based protein profiling, PC3 human cell membrane proteomes
Format: biochemical
Design: endogenous in cells; host or cells: PC3 human cells (membrane proteome)
Conditions: human PC3 membrane proteome
Procedure: PC3 human cell membrane proteomes (50 μL, 2.0 mg/mL total protein concentration) were preincubated with varying concentrations of inhibitors at 37° C. After 30 min, the ABPP probe JW912-Bodipy (1.0 μL, 50 μM in DMSO) was added and the mixture was incubated for 30 min at room temperature. Reactions were quenched with SDS loading buffer (15 μL-4×) and run on SDS-PAGE. Following gel imaging, serine hydrolase activity was determined by measuring fluorescent intensity of gel bands corresponding to MAGL using ImageJ 1.43u software. Intensities were converted to percent enzyme activity by normalizing to DMSO controls. IC50 values were determined by fitting percent enzyme activities to a non-linear regression, 4-parameter, sigmoidal dose response function in Prism GraphPad.

| IC50 | Compound |
| --- | --- |
| 0.001 µM | Cc1ccc(NC(=O)[C@H]2CC23CCN(C(=O)OC(C(F)(F)F)C(F)(F)F)CC3)nn1 (single isomer, unassigned) [Example 106] |
| 0.013 µM | O=C(Nc1ccnnc1)C1CC12CCN(C(=O)OC(C(F)(F)F)C(F)(F)F)CC2 (single isomer, unassigned) [Example 108, 1,1,1,3,3,3-hexafluoropropan-2-yl (R or S)-1-(pyridazin-4-ylcarbamoyl)-6-azaspiro[2.5]octane-6-carboxylate] |
| 0.57 µM | O=C(Nc1ccnnc1)C1CC12CCN(C(=O)OC(C(F)(F)F)C(F)(F)F)CC2 (single isomer, unassigned) [Example 109, 1,1,1,3,3,3-hexafluoropropan-2-yl (R or S)-1-(pyridazin-4-ylcarbamoyl)-6-azaspiro[2.5]octane-6-carboxylate] |
| 2.6 µM | CN1CCC(NC(=O)C2CC23CCN(C(=O)OC(C(F)(F)F)C(F)(F)F)CC3)CC1 (single isomer, unassigned) [Example 114, 1,1,1,3,3,3-hexafluoropropan-2-yl (R or S)-1-((1-methylpiperidin-4-yl)carbamoyl)-6-azaspiro[2.5]octane-6-carboxylate] |
| 0.56 µM | CN1CCC(NC(=O)C2CC23CCN(C(=O)OC(C(F)(F)F)C(F)(F)F)CC3)CC1 (single isomer, unassigned) [Example 115, 1,1,1,3,3,3-hexafluoropropan-2-yl (R or S)-1-((1-methylpiperidin-4-yl)carbamoyl)-6-azaspiro[2.5]octane-6-carboxylate] |
| 0.29 µM | O=C(NCC1CCOCC1)[C@@H]1CC12CCN(C(=O)OC(C(F)(F)F)C(F)(F)F)CC2 (single isomer, unassigned) [Example 118] |
| 0.3 µM | O=C(OC(C(F)(F)F)C(F)(F)F)N1CCC2(CC1)CC2C(=O)N1CCOCC1 (single isomer, unassigned) [Example 120, 1,1,1,3,3,3-hexafluoropropan-2-yl (R or S)-1-(morpholine-4-carbonyl)-6-azaspiro[2.5]octane-6-carboxylate] |
| 0.42 µM | O=C(OC(C(F)(F)F)C(F)(F)F)N1CCC2(CC1)CC2C(=O)N1CCOCC1 (single isomer, unassigned) [Example 121, 1,1,1,3,3,3-hexafluoropropan-2-yl (R or S)-1-(morpholine-4-carbonyl)-6-azaspiro[2.5]octane-6-carboxylate] |
| 0.16 µM | N#CC1CCN(C(=O)C2CC23CCN(C(=O)OC(C(F)(F)F)C(F)(F)F)CC3)CC1 (single isomer, unassigned) [Example 123, 1,1,1,3,3,3-hexafluoropropan-2-yl (R or S)-1-(4-cyanopiperidine-1-carbonyl)-6-azaspiro[2.5]octane-6-carboxylate] |
| 0.67 µM | N#CC1CCN(C(=O)C2CC23CCN(C(=O)OC(C(F)(F)F)C(F)(F)F)CC3)CC1 (single isomer, unassigned) [Example 124, 1,1,1,3,3,3-hexafluoropropan-2-yl (R or S)-1-(4-cyanopiperidine-1-carbonyl)-6-azaspiro[2.5]octane-6-carboxylate] |
| 0.00091 µM | O=C(Nc1ccccc1)[C@H]1CC12CCN(C(=O)OC(C(F)(F)F)C(F)(F)F)CC2 (single isomer, unassigned) [Example 141] |
| 0.13 µM | O=C(Nc1ccccc1)[C@@H]1CC12CCN(C(=O)OC(C(F)(F)F)C(F)(F)F)CC2 (single isomer, unassigned) [Example 142] |
| 0.0052 µM | Cc1ccc(NC(=O)C2CC23CCN(C(=O)OC(C(F)(F)F)C(F)(F)F)CC3)cc1 (single isomer, unassigned) [Example 144, 1,1,1,3,3,3-hexafluoropropan-2-yl (R or S)-1-(p-tolylcarbamoyl)-6-azaspiro[2.5]octane-6-carboxylate] |
| 0.27 µM | Cc1ccc(NC(=O)C2CC23CCN(C(=O)OC(C(F)(F)F)C(F)(F)F)CC3)cc1 (single isomer, unassigned) [Example 145, 1,1,1,3,3,3-hexafluoropropan-2-yl (R or S)-1-(p-tolylcarbamoyl)-6-azaspiro[2.5]octane-6-carboxylate] |
| 0.0018 µM | O=C(Nc1cccc(F)c1)C1CC12CCN(C(=O)OC(C(F)(F)F)C(F)(F)F)CC2 (single isomer, unassigned) [Example 147, 1,1,1,3,3,3-hexafluoropropan-2-yl (R or S)-1-((3-fluorophenyl)carbamoyl)-6-azaspiro[2.5]octane-6-carboxylate] |
| 0.091 µM | O=C(Nc1cccc(F)c1)C1CC12CCN(C(=O)OC(C(F)(F)F)C(F)(F)F)CC2 (single isomer, unassigned) [Example 148, 1,1,1,3,3,3-hexafluoropropan-2-yl (R or S)-1-((3-fluorophenyl)carbamoyl)-6-azaspiro[2.5]octane-6-carboxylate] |
| 0.031 µM | O=C(NCc1ccccc1)[C@@H]1CC12CCN(C(=O)OC(C(F)(F)F)C(F)(F)F)CC2 (single isomer, unassigned) [Example 151] |
| 0.077 µM | O=C(NCc1cncnc1)C1CC12CCN(C(=O)OC(C(F)(F)F)C(F)(F)F)CC2 (single isomer, unassigned) [Example 153, 1,1,1,3,3,3-hexafluoropropan-2-yl (R or S)-1-((pyrimidin-5-ylmethyl)carbamoyl)-6-azaspiro[2.5]octane-6-carboxylate] |
| 0.86 µM | O=C(NCc1cncnc1)C1CC12CCN(C(=O)OC(C(F)(F)F)C(F)(F)F)CC2 (single isomer, unassigned) [Example 154, 1,1,1,3,3,3-hexafluoropropan-2-yl (R or S)-1-((pyrimidin-5-ylmethyl)carbamoyl)-6-azaspiro[2.5]octane-6-carboxylate] |
| 0.45 µM | O=C(NCc1cccnn1)C1CC12CCN(C(=O)OC(C(F)(F)F)C(F)(F)F)CC2 (single isomer, unassigned) [Example 156, 1,1,1,3,3,3-hexafluoropropan-2-yl (R or S)-1-((pyridazin-3-ylmethyl)carbamoyl)-6-azaspiro[2.5]octane-6-carboxylate] |
| 0.23 µM | O=C(NCc1cccnn1)C1CC12CCN(C(=O)OC(C(F)(F)F)C(F)(F)F)CC2 (single isomer, unassigned) [Example 157] |
| 0.043 µM | O=C(NC1CC2(COC2)C1)C1CC12CCN(C(=O)OC(C(F)(F)F)C(F)(F)F)CC2 (single isomer, unassigned) [Example 159, 1,1,1,3,3,3-hexafluoropropan-2-yl (R or S)-1-((2-oxaspiro[3.3]heptan-6-yl)carbamoyl)-6-azaspiro[2.5]octane-6-carboxylate] |
| 0.59 µM | O=C(NC1CC2(COC2)C1)C1CC12CCN(C(=O)OC(C(F)(F)F)C(F)(F)F)CC2 (single isomer, unassigned) [Example 160, 1,1,1,3,3,3-hexafluoropropan-2-yl (R or S)-1-((2-oxaspiro[3.3]heptan-6-yl)carbamoyl)-6-azaspiro[2.5]octane-6-carboxylate] |
| 0.16 µM | O=C(Nc1ccc(C2CC2)nc1)[C@@H]1CC12CCN(C(=O)OC(C(F)(F)F)C(F)(F)F)CC2 (single isomer, unassigned) [Example 162] |
| 0.001 µM | O=C(Nc1ccc(C2CC2)nc1)[C@H]1CC12CCN(C(=O)OC(C(F)(F)F)C(F)(F)F)CC2 (single isomer, unassigned) [Example 163] |

| Compound | IC50 |
| --- | --- |
| Cc1cnc(NC(=O)C2CC23CCN(C(=O)OC(C(F)(F)F)C(F)(F)F)CC3)cn1 (single isomer, unassigned) [Example 111, 1,1,1,3,3,3-hexafluoropropan-2-yl (R or S)-1-((5-methylpyrazin-2-yl)carbamoyl)-6-azaspiro[2.5]octane-6-carboxylate] | 0.074 µM |
| Cn1ccc(NC(=O)C2CC23CCN(C(=O)OC(C(F)(F)F)C(F)(F)F)CC3)n1 (single isomer, unassigned) [Example 126, 1,1,1,3,3,3-hexafluoropropan-2-yl (R or S)-1-((1-methyl-1H-pyrazol-3-yl)carbamoyl)-6-azaspiro[2.5]octane-6-carboxylate] | 0.23 µM |
| CC1(NC(=O)C2CC23CCN(C(=O)OC(C(F)(F)F)C(F)(F)F)CC3)CCOCC1 (single isomer, unassigned) [Example 133, 1,1,1,3,3,3-hexafluoropropan-2-yl (R or S)-1-((4-methyltetrahydro-2H-pyran-4-yl)carbamoyl)-6-azaspiro[2.5]octane-6-carboxylate] | 1.6 µM |
| Cn1nccc1NC(=O)C1CC12CCN(C(=O)OC(C(F)(F)F)C(F)(F)F)CC2 (single isomer, unassigned) [Example 136, 1,1,1,3,3,3-hexafluoropropan-2-yl (R or S)-1-((1-methyl-1H-pyrazol-5-yl)carbamoyl)-6-azaspiro[2.5]octane-6-carboxylate] | 0.34 µM |
| O=C(Nc1nccs1)C1CC12CCN(C(=O)OC(C(F)(F)F)C(F)(F)F)CC2 (single isomer, unassigned) [Example 139, 1,1,1,3,3,3-hexafluoropropan-2-yl (R or S)-1-(thiazol-2-ylcarbamoyl)-6-azaspiro[2.5]octane-6-carboxylate] | 0.11 µM |
